The values that follow come from patent US11814444B2, “Cyclic polypeptides for PCSK9 inhibition” (Ra Pharmaceuticals, Inc., priority 2018, dated 2023).

Test [1] deals with human PCSK9 / human LDLR EGFa domain interaction (Homo sapiens, UniProt Q8NBP7). The test is described as follows: TR-FRET assay of inhibition of the PCSK9-LDLR protein-protein interaction. The test is classed as binding. The note with it: 20 nM avitag-biotinylated human PCSK9, 20 nM his-tagged human LDLR EGFa domain, 2 hours, room temperature. The essentials:
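Readout is the TR-FRET signal between europium anti-6×His on his-tagged LDLR EGFa domain and Ulight streptavidin on biotinylated PCSK9, both proteins at 20 nM and both detection reagents at 5 nM. Incubation lasted 2 hours at room temperature; compounds were run in dose-response with a 4-parameter fit.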
(In general: In TR-FRET formats the signal depends on donor and acceptor labels being close together.)

The target of test [2] is PCSK9 (Homo sapiens, UniProt Q8NBP7). The test is described as follows: PCSK9 Alexa FRET Standard assay (displacement of AlexaFluor647 tagged cyclic peptide Reagent A). In kind it is binding. Particulars: 0.5 nM PCSK9, 20 nM AF cyclic peptide Reagent A. The essentials:
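TR-FRET displacement: 0.5 nM biotinylated PCSK9 with 1.25 nM Strep-Eu and 20 nM AlexaFluor-tagged cyclic peptide (final) in 50 mM HEPES pH 7.4, 0.15 M NaCl, 5 mM CaCl2, 0.01% BSA, 0.01% P20, ≥2 h at room temperature. IC50 from sigmoidal fit, converted to Ki via peptide KD; falling Eu counts flagged false positives.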

SMILES strings stand for the structures. Numbered stars: 1 amine (or outer) side, 2 acyl side, 3 side chain; on linkers, the order of the positions; unused ones are H or OH. Bridge positions count the residues as written; N and C are the ends. Square brackets hold non-standard residues; d marks the D form. Peptide text beside a SMILES is read from it. * marks the point of attachment. Trp(7-aza) = N[C@@H](Cc1c[nH]c2ncccc12)C(=O)O; mXylylene = c1cc(C[*:1])cc(C[*:2])c1; NMeE = CN[C@@H](CCC(=O)O)C(=O)O; Tle = CC(C)(C)[C@H](N)C(=O)O; αMeV = CC(C)[C@](C)(N)C(=O)O; Dpg = CCCC(N)(CCC)C(=O)O; Iva = CC[C@](C)(N)C(=O)O; NMeA = CN[C@@H](C)C(=O)O; Ac5c = NC1(C(=O)O)CCCC1; Nva = CCC[C@H](N)C(=O)O; Ac4c = NC1(C(=O)O)CCC1; Ac3c = NC1(C(=O)O)CC1; Aib = CC(C)(N)C(=O)O; Ms = CS(=O)(=O)*; Mpa = O=C(O)CCS

For orientation: IC50 means the concentration that inhibits the measured activity by half. Low values mean higher potency, high ones lower potency.

Chain of PCSK9 (Q8NBP7 153-692): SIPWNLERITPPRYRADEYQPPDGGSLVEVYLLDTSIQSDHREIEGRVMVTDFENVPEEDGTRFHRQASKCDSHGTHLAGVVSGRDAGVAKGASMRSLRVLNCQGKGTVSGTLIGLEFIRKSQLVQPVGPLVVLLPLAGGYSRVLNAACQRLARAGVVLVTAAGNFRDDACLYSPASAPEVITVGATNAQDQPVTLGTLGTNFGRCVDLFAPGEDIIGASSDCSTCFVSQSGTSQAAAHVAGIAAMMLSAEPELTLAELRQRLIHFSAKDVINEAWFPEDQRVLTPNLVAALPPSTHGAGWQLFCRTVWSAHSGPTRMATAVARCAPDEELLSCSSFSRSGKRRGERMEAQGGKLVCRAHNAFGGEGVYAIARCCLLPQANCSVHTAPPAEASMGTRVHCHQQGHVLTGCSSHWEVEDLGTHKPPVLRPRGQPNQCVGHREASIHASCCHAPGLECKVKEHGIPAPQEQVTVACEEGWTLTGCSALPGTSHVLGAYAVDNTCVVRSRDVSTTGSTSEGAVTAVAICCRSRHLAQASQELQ
Chain of human PCSK9 / human LDLR EGFa domain interaction (Q8NBP7 153-692): as above
Chain of human PCSK9 / human LDLR EGFa domain interaction (Q8NBP7 31-152 partner limits assumed): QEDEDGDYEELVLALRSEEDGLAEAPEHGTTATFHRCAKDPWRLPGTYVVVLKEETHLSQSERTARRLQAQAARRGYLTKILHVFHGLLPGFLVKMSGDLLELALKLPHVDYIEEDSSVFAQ

For `CC[C@]1(C)NC(=O)[C@H](Cc2c[nH]c3ncccc23)NC(=O)[C@H]([C@@H](C)O)NC(=O)[C@@H]2CCCN2C(=O)[C@H](Cc2ccc(O)cc2)NC(=O)[C@H](C(C)(C)C)NC(=O)[C@@H](NC(C)=O)CSCc2cccc(c2)CSC[C@@H](C(N)=O)NC(=O)[C@H]([C@@H](C)O)NC(=O)[C@](C)(C(C)C)NC(=O)[C@H](Cc2ccc(O)cc2)NC(=O)[C@H](C)NC1=O` [Compound 182] (Ac-C[Tle]YPT[Trp(7-aza)][Iva]AY[αMeV]TC-NH2; linker 1-12 via mXylylene), the IC50 in test [1] lay in the range of 21000 to 50000 nM; in test [2] it was 1000 to 21000 nM.

Turning to `CC(=O)N[C@H]1CSCc2cccc(c2)CSC[C@@H](C(N)=O)NC(=O)[C@H]([C@@H](C)O)NC(=O)[C@](C)(C(C)C)NC(=O)[C@H](Cc2ccc(O)cc2)NC(=O)[C@H](C)NC(=O)C2(CCC2)NC(=O)[C@H](Cc2c[nH]c3ncccc23)NC(=O)[C@H]([C@@H](C)O)NC(=O)[C@@H]2CCCN2C(=O)[C@H](Cc2ccc(O)cc2)NC(=O)[C@H](C(C)(C)C)NC1=O` [Compound 183] (Ac-C[Tle]YPT[Trp(7-aza)][Ac4c]AY[αMeV]TC-NH2; linker 1-12 via mXylylene), the IC50 in test [1] is 21000 to 50000 nM; in test [2], 1000 to 21000 nM.

On to `CC(=O)N[C@H]1CSCc2cccc(c2)CSC[C@@H](C(N)=O)NC(=O)[C@H]([C@@H](C)O)NC(=O)[C@](C)(C(C)C)NC(=O)[C@H](Cc2ccc(O)cc2)NC(=O)[C@H](C)NC(=O)C2(CCCC2)NC(=O)[C@H](Cc2c[nH]c3ncccc23)NC(=O)[C@H]([C@@H](C)O)NC(=O)[C@@H]2CCCN2C(=O)[C@H](Cc2ccc(O)cc2)NC(=O)[C@H](C(C)(C)C)NC1=O` [Compound 184] (Ac-C[Tle]YPT[Trp(7-aza)][Ac5c]AY[αMeV]TC-NH2; linker 1-12 via mXylylene), for which the concentration for half-maximal inhibition (IC50) in test [1] lay in the range of 100 to 1000 nM; in test [2] it was 1 to 100 nM.

On to `CC(=O)N[C@H]1CSCc2cccc(c2)CSC[C@H](C(N)=O)NC(=O)[C@H]([C@@H](C)O)NC(=O)[C@](C)(C(C)C)NC(=O)[C@H](Cc2ccc(O)cc2)NC(=O)[C@H](C)NC(=O)C2(CCC2)NC(=O)[C@H](Cc2c[nH]c3ncccc23)NC(=O)[C@H]([C@@H](C)O)NC(=O)[C@@H]2CCCN2C(=O)[C@H](Cc2ccc(O)cc2)NC(=O)[C@H](C(C)(C)C)NC1=O` [Compound 185] (Ac-C[Tle]YPT[Trp(7-aza)][Ac4c]AY[αMeV]T[dC]-NH2; linker 1-12 via mXylylene), for which the IC50 in test [1] and in test [2] was 1 to 100 nM in each case.

`CC(=O)N[C@H]1CSCc2cccc(c2)CSC[C@H](C(N)=O)NC(=O)[C@H]([C@@H](C)O)NC(=O)[C@](C)(C(C)C)NC(=O)[C@H](Cc2ccc(O)cc2)NC(=O)[C@H](C)NC(=O)C2(CCCC2)NC(=O)[C@H](Cc2c[nH]c3ncccc23)NC(=O)[C@H]([C@@H](C)O)NC(=O)[C@@H]2CCCN2C(=O)[C@H](Cc2ccc(O)cc2)NC(=O)[C@H](C(C)(C)C)NC1=O` [Compound 186] (Ac-C[Tle]YPT[Trp(7-aza)][Ac5c]AY[αMeV]T[dC]-NH2; linker 1-12 via mXylylene): the concentration for half-maximal inhibition (IC50) in test [1] and in test [2] was 1 to 100 nM each time.

With `CCCC1(CCC)NC(=O)[C@H](Cc2c[nH]c3ncccc23)NC(=O)[C@H]([C@@H](C)O)NC(=O)[C@@H]2CCCN2C(=O)[C@H](Cc2ccc(O)cc2)NC(=O)[C@H](C(C)(C)C)NC(=O)[C@@H](NC(C)=O)CSCc2cccc(c2)CSC[C@H](C(N)=O)NC(=O)[C@H]([C@@H](C)O)NC(=O)[C@](C)(C(C)C)NC(=O)[C@H](Cc2ccc(O)cc2)NC(=O)[C@H](C)NC1=O` [Compound 188] (Ac-C[Tle]YPT[Trp(7-aza)][Dpg]AY[αMeV]T[dC]-NH2; linker 1-12 via mXylylene), the IC50 in test [1] and in test [2] was 1000 to 21000 nM each time.

In the case of `CNC(=O)[C@H]1CSCc2cccc(c2)CSC[C@H](NC(C)=O)C(=O)N[C@@H](C(C)(C)C)C(=O)N[C@@H](Cc2ccc(O)cc2)C(=O)N2CCC[C@H]2C(=O)N[C@@H]([C@@H](C)O)C(=O)N[C@@H](Cc2c[nH]c3ncccc23)C(=O)NC(C)(C)C(=O)N[C@@H](C)C(=O)N[C@@H](Cc2ccc(O)cc2)C(=O)N[C@@](C)(C(C)C)C(=O)N[C@@H]([C@@H](C)O)C(=O)N1` [Compound 189] (Ac-C[Tle]YPT[Trp(7-aza)][Aib]AY[αMeV]T[dC]-NHMe; linker 1-12 via mXylylene), the results for the IC50 in test [1] and in test [2] were 21000 to 50000 nM and 1000 to 21000 nM, respectively.

Consider `CC(=O)N[C@H]1CSCc2cccc(c2)CSC[C@H](C(N)=O)NC(=O)[C@H]([C@@H](C)O)NC(=O)[C@](C)(C(C)C)NC(=O)[C@H](Cc2ccc(O)cc2)NC(=O)[C@H](C)NC(=O)C2(CC2)NC(=O)[C@H](Cc2c[nH]c3ncccc23)NC(=O)[C@H]([C@@H](C)O)NC(=O)[C@@H]2CCCN2C(=O)[C@H](Cc2ccc(O)cc2)NC(=O)[C@H](C(C)(C)C)NC1=O` [Compound 191] (Ac-C[Tle]YPT[Trp(7-aza)][Ac3c]AY[αMeV]T[dC]-NH2; linker 1-12 via mXylylene), for which the half-maximal inhibitory concentration (IC50) in test [1] and in test [2] was 1 to 100 nM in each case.

With `CC(C)[C@]1(C)NC(=O)[C@H](Cc2ccc(O)cc2)NC(=O)[C@H](C)NC(=O)C2(CCC2)NC(=O)[C@H](Cc2c[nH]c3ncccc23)NC(=O)[C@H]([C@@H](C)O)NC(=O)[C@@H]2CCCN2C(=O)[C@H](Cc2ccc(O)cc2)NC(=O)[C@H](C(C)(C)C)NC(=O)[C@@H](NS(C)(=O)=O)CSCc2cccc(c2)CSC[C@H](C(N)=O)NC(=O)[C@H]([C@@H](C)O)NC1=O` [Compound 192] (Ms-C[Tle]YPT[Trp(7-aza)][Ac4c]AY[αMeV]T[dC]-NH2; linker 1-12 via mXylylene), the concentration for half-maximal inhibition (IC50) in test [1] and in test [2] was 1 to 100 nM throughout.

Consider `CCC[C@@H]1NC(=O)[C@H](Cc2ccc(O)cc2)NC(=O)[C@H](CCC(=O)O)NC(=O)[C@H](C)N(C)C(=O)[C@H](Cc2c[nH]c3ncccc23)NC(=O)[C@H]([C@@H](C)O)NC(=O)[C@H](Cc2c[nH]cn2)NC(=O)[C@H](Cc2ccc(O)cc2)NC(=O)[C@H](C(C)(C)C)NC(=O)CCSCc2cccc(c2)CSC[C@@H](C(N)=O)NC(=O)[C@H]([C@@H](C)O)NC1=O` [Compound 207] ([Mpa][Tle]YHT[Trp(7-aza)][NMeA]EY[Nva]TC-NH2; linker 1-12 via mXylylene), for which the IC50 in test [1] and in test [2] was 50000 to 100000 nM each time.

Take `CCC[C@@H]1NC(=O)[C@H](Cc2ccc(O)cc2)NC(=O)[C@H](CCC(=O)O)N(C)C(=O)[C@H](CCC)NC(=O)[C@H](Cc2c[nH]c3ncccc23)NC(=O)[C@H]([C@@H](C)O)NC(=O)[C@H](Cc2c[nH]cn2)NC(=O)[C@H](Cc2ccc(O)cc2)NC(=O)[C@H](C(C)(C)C)NC(=O)CCSCc2cccc(c2)CSC[C@@H](C(N)=O)NC(=O)[C@H]([C@@H](C)O)NC1=O` [Compound 208] ([Mpa][Tle]YHT[Trp(7-aza)][Nva][NMeE]Y[Nva]TC-NH2; linker 1-12 via mXylylene): the IC50 in test [1] and in test [2] was 50000 to 100000 nM throughout.

As to `CCC[C@@H]1NC(=O)[C@H](Cc2c[nH]c3ncccc23)NC(=O)[C@H]([C@@H](C)O)NC(=O)[C@H](Cc2c[nH]cn2)NC(=O)[C@H](Cc2ccc(O)cc2)NC(=O)[C@H](C(C)(C)C)NC(=O)[C@@H](NC(C)=O)CSCc2cccc(c2)CSC[C@@H](C(N)=O)NC(=O)[C@H]([C@@H](C)O)NC(=O)[C@H](CCC)NC(=O)[C@H](Cc2ccc(O)cc2)NC(=O)[C@H](CCC(=O)O)NC1=O` [Compound 235] (Ac-C[Tle]YHT[Trp(7-aza)][Nva]EY[Nva]TC-NH2; linker 1-12 via mXylylene), the IC50 in test [1] was 100 to 1000 nM; in test [2] it was 1000 to 21000 nM.
